Source: patent US20220339227A1, “COMPOSITIONS OF CANNABINOIDS FOR DELIVERY BY INHALATION” (priority 2019, published 2022)
Like-named read-outs stand apart in the source and are kept apart here.

Legend:
[1] = Pharmacokinetic study in rats: dry powder insufflation of TFF-CBD and intravenous CBD solution; assay type: in vivo; settings: plasma, intravenous solution 10 mg/kg, rat, read-out: Cannabidiol concentration in rat plasma, Intravenous
Experimental: A dry powder formulation for inhalation containing 25% (w/w) of Cannabidiol (CBD) was developed using TFF technology, and a pharmacokinetic (PK) study in rats was performed using PennCentury™ DP4 dry powder Insufflator™ with a target delivered dose of 10 mg/kg CBD. […] For comparison and in contrast to the plasma levels of this TFF-CBD inhaled powder, in an inhaled CBD pharmacokinetic study in rats reported by Hložek et al. (2017) using CBD dissolved in a ethanolic solution and vaporized using heat, the inventors calculated based on information in this paper the administered amount of CBD as the delivered dose of 1.798 mg, or 7.98 mg/kg (calculated according Wang et al., 2014; DD=C×RMV×D, where DD is the delivered dose in mg, C is the concentration of drug powder in air in mg/L, RMV is the respiratory minute volume of a rat in L/min (RMV (L/min) for rats is calculated as =0.608×BW (kg)^0.852), and D is the exposure duration in min; based on 20 mg CBD nebulized into 9.5 L dosing chamber; a calculated RMV of 0.17 L/min, an average body weight of 225 g and exposure time of 5 min). […] There is a difference between this TFF-CBD inhaled powder that maintained relatively constant plasma levels over 8 hours compared to the rapid decline in serum levels of inhaled CBD ethanolic solution reported by Hložek et al. (2017). Possible explanations include that the TFF-CBD powder can better avoid lung clearance and that the TFF-CBD powder particles deposited in the lungs continue to dissolve and be absorbed from the lungs to plasma. (Beinborn et al., 2012; Wang et al., 2014; Carvalho et al., 2014). […] For comparison, based on CBD plasma levels of Huntington's disease patients, as reported by Consroe et al. (1991), the orally administered CBD dose of 10 mg/kg/day, which is the recommended maintenance dose of Epidiolex®, for 6 weeks by oral administration resulted a steady state CBD plasma level between 5.9 and 11.2 ng/mL.
To study of plasma level with lower dose of the TFF-CBD powder by dry powder inhalation, another pharmacokinetic study in rats was performed using PennCentury™ DP4 dry powder Insufflator™ with a target delivered dose of 3 mg/kg and 1 mg/kg CBD. […] In other words, TFF-CBD dry powder inhalation was more efficient in delivering CBD than the vaporized CBD liquid. Therefore, delivery of TFF-CBD powder by dry powder inhalation requires a lower dose to reach the similar systemic levels of CBD as compared to vaporized CBD liquid by inhalation, thus showing TFF-CBD will present better efficacy at equivalent doses.

[2] = Huntington's disease patients, oral 10 mg/kg/day for 6 weeks; cited from earlier work
[3] = rat, 7.98 mg/kg, cited from earlier work; for CBD serum level: vaporized CBD, by four hours

## C=C(C)[C@@H]1CCC(C)=C[C@H]1c1c(O)cc(CCCCC)cc1O [Cannabidiol]
[1]; n=5, 0.083 h
  concentration at 0.083 h: 4280 ± 891 ng/mL
[1]; n=5, 0.25 h
  concentration at 0.25 h: 1770 ± 297 ng/mL
[1]; n=5, 0.5 h
  concentration at 0.5 h: 1040 ± 217 ng/mL
[1]; n=5, 1 h
  concentration at 1 h: 601 ± 193 ng/mL
[1]; n=5, 2 h
  concentration at 2 h: 272 ± 112 ng/mL
[1]; n=5, 4 h
  concentration at 4 h: 50 ± 23 ng/mL
[1]; n=5, 8 h
  concentration at 8 h: 16.1 ± 11.3 ng/mL
[2]
  effect of the dosing level in Huntington's disease: neither symptomatically effective nor toxic
[3]; vaporized CBD ethanolic solution, immediately after removal from inhalation dosing chamber
  CBD serum level, peak: about 220 ng/mL
[3]; listed as CBD
  CBD serum level: less than 20 ng/mL
[3]
  CBD serum level: below 20 ng/mL
